Results as given in paper PMC12119673, “Apoptotic cell death induced by copper (II), manganese (II) and silver (I) complexes containing bridging dicarboxylate and 1,10-phenanthroline ligands: one of the multi-modes of anticancer activity?” (Biometals, 2025).

Experiments:
Assay type in all cases: cell-based, human
MCF-7 cells = test: Detection of reactive oxygen species with H2DCFDA; conditions: MCF-7, 0.78 μM to 50 μM, over a 6-h period, fold-change compared to the negative control
Description: The production of reactive oxygen species (ROS) was detected in MCF-7 and MCF12A cells using the cell-permeant dye 2',7'- dichlorodihydrofluorescein diacetate (H2DCFDA) (Thermo Fisher Scientific, Ireland) (Cat# D399). Cells were seeded at a density of 1 × 10^4 in 96 well plates and incubated for 24 h. Post-incubation, the media was removed, and cells were washed with PBS. A 10 μM DCFH-DA working solution was prepared using cell culture media, and the cells were incubated with 100 μl of the solution in the dark for 30 min. […] Fluorescent measurements were recorded at 15 min, 30 min, 1 h, and subsequently every hour up to 6 h using a Varioskan Lux™ multimode microplate reader (Thermo Fisher Scientific, Ireland) at an excitation wavelength of 495 nm and emission of 527 nm. The assay was repeated three independent times, using three replicates per plate.
The cells were treated with a concentration range from 0.78 μM to 50 μM, and the response was measured over a 6-h period. This facilitated the evaluation of whether there was a time and/or concentration dependent response from the cells. Hydrogen peroxide (H2O2) was used as a positive control. ROS production is presented as fold-change compared to the negative control.

[1] = system: apoptotic genes in MCF-12A cells; test: Apoptosis-related gene expression, qRT-PCR; conditions: IC25 concentration, 24 h, relative to negative control
Description: (§1) A broad scope of molecular targets involved in the apoptotic pathway were selected for analysis using qRT-PCR including initiators, mediators and inhibitors. These gene targets along with their cellular location and associated primer set are outlined in Table 2. Primer sets for each gene were designed using NCBI nucleotide sequences and the Primer3 application (Table 3). Once designed, the primers were synthesised by Sigma Aldrich, Ireland.
(§2) MCF-7 and MCF-12A cells were seeded at a density of 1 × 10^5 in T25 flasks and incubated for 24 h allowing for attachment. Following incubation, the seeding media was removed, and the cells were washed with PBS. […] Post-exposure, RNA was isolated from the cells. Tri-reagent^Ⓡ (Sigma, Ireland) (Cat# T9424) was added to the cells followed by centrifugation at 300 g for 5 min. The RNA was precipitated using chloroform, followed by centrifugation and washing of the pellet using 75% ethanol. The RNA was resuspended in 30 μl of nuclease-free water. The RNA was either used immediately for qRT-PCR or stored at −80 ℃. The RNA from each sample was quantified using the NanoDrop™ 2000 Spectrophotometer (Thermo Fisher Scientific, Ireland). The A260/A230 ratio was measured to ensure the purity of each sample. Prior to cDNA synthesis, all samples were adjusted to a concentration of 100 ng. The RNA was then reverse transcribed into cDNA using the Quanta Biosciences Kit (Quanta Biosciences, USA) (Cat# 95047). Using the SimpliAmp Thermal Cycler (Applied Biosystems; Thermo Fisher Scientific, Ireland), the following settings were applied: 5 min at 22 ℃, 30 min at 42 ℃, 5 min at 85 ℃; samples were then maintained in an indefinite hold at 4 ℃ prior to being used for quantitative real-time PCR. The cDNA templates were amplified and analysed using SYBR™ Green (Fisher Scientific, UK) (Cat#10187094). Using the 7500 fast Real-Time PCR System (Applied Biosystems, USA), the following thermal cycling setting were applied for amplification: Pre-Incubation (1 cycle) 95 ℃, 5 Minutes, 4.4 ℃ ramp; Amplification (45 cycles) 95 °C 10 s ramp 4.4 °C, 60 °C 10 s ramp 2.2 °C, 72 °C 10 s ramp 4.4 °C; Melting Curve (1 cycle) 95 °C 5 s ramp 4.4 °C, 65 °C 1 min ramp 2.2 °C, 97 °C continuous ramp 0.11 °C acquisition 10 per °C; Cooling (1 cycle) 40 °C 10 s ramp 1.5 °C. Two reference genes, actin and tubulin, were employed to determine the expression of the target genes. No template controls were included to confirm the absence of template contamination and auto-fluorescence. Each PCR plate contained three technical replicates per sample and gene target, with each experiment repeated three independent times using three individual biological replicates.
(§3) qRT-PCR data was analysed by first using the Vandesompele method to calculate the geometric mean of Ct values for the reference genes, actin and tubulin. These values were used for normalisation of the target gene expression values which were then calculated using the Livak and Schmittgen formula: 2^−ΔCt1(test)−ΔCt2(control) (Livak and Schmittgen [2001]; Vandesompele et al. [2002]).
(§4) The expression profiles (Fig. 4) display the log(2) transformed mean expression value for each gene target relative to the negative control. Expression values for each target were determined relative to the geometric means of reference genes. […] Each graph contains a threshold line, set at the value of one, this represents baseline expression levels of genes.

[2] = system: apoptotic genes in MCF-7 cells; test: Apoptosis-related gene expression, qRT-PCR; conditions: MCF-7, IC25 concentration, 24 h, relative to negative control
Description: as §1, §2, §3, §4

MCF-12A cells = test: Apoptosis induction, Annexin V / propidium iodide flow cytometry; conditions: IC25 concentration, 24 h
Description: MCF-7 and MCF-12A cells were seeded at a density of 1 × 10^5 in T25 flasks (Sarstedt, Germany) and incubated for 24 h at 37 °C with 5% CO2 allowing for attachment. Post -incubation, the media was removed, cells were washed with sterile PBS and then treated using IC25 concentrations established from the in vitro cytotoxicity screen. […] After the exposure period, the cells were enzymatically detached using trypsin, collected and centrifuged at 1200RPM for 10 min. The cells were then washed with PBS, re-centrifuged and resuspended in 1 ml of annexin binding buffer. Prior to staining, the concentration of each sample was adjusted to 1 × 10^6 cells/ml. The cells were stained with 1 μl of propidium iodide (PI) (Sigma, Ireland) (Cat #P4864) and 2 μl of Annexin V (Thermo Fisher Scientific, Ireland) (Cat #A13199). The cells were incubated at room temperature for 15 min prior to analysis. The staining process was completed in the dark to eliminate interference with photo-sensitive reagents. Immediately prior to analysis by flow cytometry, 400 μl of annexin binding buffer was added to each sample. Samples were analysed using a (CytoFLEX) (Beckman Coulter, USA). The AV/PI assay was completed three independent times.
Flow cytometry data analysis was performed with the CytExpert package (Ver. 2.4) (Beckman Coulter, USA) and Microsoft^Ⓡ Excel (USA). The mean MFI and percentage cells were calculated using these packages, followed by one-way ANOVA analysis with post hoc Bonferroni correction using GraphPad Prism (Ver. 9.4) (GraphPad, USA).
The induction of apoptosis was analysed in MCF-7 and MCF-12A cells using the Annexin V and Propidium Iodide assay with flow cytometry. […] The assay allows for the differentiation of viable, apoptotic and necrotic cells based on the selective staining of Annexin V and PI. Annexin V binds to phosphatidylserines externalised to the outer leaflet of the plasma membrane during apoptosis; and PI is a membrane impermeable dye that binds to DNA of necrotic cells with compromised plasma membranes.

| Molecule | ROS production (MCF-7 cells) | Caspase gene expression (caspase-9, -8, -3) [1] | Pro-apoptotic gene expression (BID, BIM, BAD, BAX) [1] | Caspase gene expression (caspase-9, -8, -3) [2] | Pro-apoptotic gene expression (BID, BIM, BAD, BAX) [2] | Apoptotic population (% cells) (MCF-12A cells) | Necrotic population (% cells) (MCF-12A cells) |
| --- | --- | --- | --- | --- | --- | --- | --- |
| O=C([O-])CCCCCCC(=O)[O-].[Cu+2].[Cu+2].[O-][Cl+3]([O-])([O-])[O-].[O-][Cl+3]([O-])([O-])[O-].c1cnc2c(c1)ccc1cccnc12.c1cnc2c(c1)ccc1cccnc12.c1cnc2c(c1)ccc1cccnc12.c1cnc2c(c1)ccc1cccnc12 [Complex 1, [Cu2(oda)(phen)4](ClO4)2] | moderate production of ROS | expressed caspase 8 | upregulated expression of the gene encoding BH3-only protein BID | expressing initiator caspase 9 | upregulated expression of the gene encoding BH3-only protein BID |  |  |
| O=C([O-])CCCCCCC(=O)[O-].[Cu+2].c1cnc2c(c1)ccc1cccnc12.c1cnc2c(c1)ccc1cccnc12 [Complex 2, [Cu(oda)(phen)2]] | moderate production of ROS | expressed caspase 8 | upregulated expression of the gene encoding BH3-only protein BID | expressing initiator caspase 9 | upregulated expression of the gene encoding BH3-only protein BID |  |  |
| O=C([O-])CCCCCCC(=O)[O-].[Ag+].[Ag+].c1cnc2c(c1)ccc1cccnc12.c1cnc2c(c1)ccc1cccnc12.c1cnc2c(c1)ccc1cccnc12 [Complex 4, [Ag2(oda)(phen)3]] | lowest production | expression of caspase-9 and caspase-3 | significantly elevated BIM and BAD expression | expression of caspase-9 and caspase-3 |  | significant decrease in apoptotic cells | virtually no necrotic population |
| O=C([O-])CCCCCCCCCC(=O)[O-].[Ag+].[Ag+].c1cnc2c(c1)ccc1cccnc12.c1cnc2c(c1)ccc1cccnc12.c1cnc2c(c1)ccc1cccnc12 [Complex 5, [Ag2(udda)(phen)3]] | lowest production | expression of caspase-9 and caspase-3 | significantly elevated BIM and BAD expression | expression of caspase-9 and caspase-3 |  | same level of apoptosis | no necrotic population was observed |
| c1cnc2c(c1)ccc1cccnc12 [Phen, 1,10-Phenanthroline] |  | all caspases seen to be activated | pro-apoptotic BIM and BAD were upregulated | all caspases seen to be activated | pro-apoptotic BIM and BAD were upregulated |  |  |
| {[Mn2(oda)3(phen)4]^2−[Mn2(oda)(phen)4 (H2O)2]^2+} [Complex 7] | potent inducer of ROS, eliciting the highest production in MCF-7 cells | Initiator caspase 9 was expressed by MCF-12A cells, but executioner caspase-3 was not found to be expressed | only shown to express BIM | No caspase activity was observed | expression of both BID and BIM | significantly diminished apoptotic population | no necrosis observed |
